In US8940766B2, “Methods for preventing and/or treating lysosomal storage disorders” (Amicus Therapeutics, Inc., priority 2009, dated 2015):

How the values were obtained:
[1] = Blood brain barrier penetration after oral administration to mice; type: in vivo, mice (C57BL/6); details: single 30 mg/kg (free base equivalent) p.o. dose, FIG. 2
Description: For this purpose, 8-week old wild-type male mice (C57BL/6) were administered a single 30 mg/kg (free base equivalent) p.o. dose of reference or test compound by gavage (n=3 mice per time point). Dosing solutions were prepared in water. After dosing, mice were euthanized with CO2 at the following time points: 0-, 0.5-, 1-, and 4-hour post-dose. […] Similarly, brains were collected from each mouse. Plasma was derived by spinning whole blood at 2700 g for 10 minutes at 4° C. followed by storage on dry ice. Whole brains were washed in cold PBS to remove contaminating blood, blotted dry, flash frozen on dry ice, and ultimately stored at −80° C. until analysis. To prepare brain samples for analysis, 50-100 mg of tissue was homogenized in […]. Samples were then clarified by centrifugation. Next, 25 μl of the brain homogenate supernatant or 25 μl of plasma were combined with 25 μl of acetonitrile:water (95/5). […] Between 20 and 30 μl sample was injected for analysis. […] When Compound B was analyzed, Compound A was used as internal standard (150.1/130.1). For calculating drug concentrations, raw data for plasma (ng/mL) and brain (ng/g) was converted to nM using the molecular weight of respective compounds and assuming 1 g of tissue is equivalent to 1 mL volume. Concentration as a function of time was plotted in GraphPad Prism version 4.02.

GCase = target: T1, GCase (Mus musculus, UniProt P17439); assay: GCase enhancement in tissues of orally dosed mice; type: in vivo, mice (C57BL/6); details: for GCase increase: nine doses over 2 weeks, 24-hour washout
T1 construct: Liver, spleen, lung, and brain tissues were removed; from tissue; host or cells: brain, spleen, liver, lung of C57BL/6 mice
T1 sequence (P17439 20-515): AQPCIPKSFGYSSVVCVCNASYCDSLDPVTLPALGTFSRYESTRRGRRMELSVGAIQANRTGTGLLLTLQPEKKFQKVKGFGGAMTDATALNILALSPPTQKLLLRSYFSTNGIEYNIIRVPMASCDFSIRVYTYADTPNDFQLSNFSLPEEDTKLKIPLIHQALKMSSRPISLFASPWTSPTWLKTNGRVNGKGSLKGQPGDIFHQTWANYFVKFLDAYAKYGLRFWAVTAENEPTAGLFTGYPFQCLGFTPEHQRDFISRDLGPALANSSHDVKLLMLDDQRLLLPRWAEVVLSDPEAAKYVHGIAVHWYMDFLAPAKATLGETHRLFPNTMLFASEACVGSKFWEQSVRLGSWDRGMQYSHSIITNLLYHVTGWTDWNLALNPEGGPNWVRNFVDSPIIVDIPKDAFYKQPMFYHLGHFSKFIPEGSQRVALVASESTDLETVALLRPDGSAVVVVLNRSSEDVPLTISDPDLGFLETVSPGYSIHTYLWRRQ
Description: The ability of orally administered test compounds (the hydrochloride salt form of Compound A and Compound B) to elevate GCase levels as compared to reference compound, IFG-tartrate, was assessed in mice. […] Seven animals were used per dose. The dosing solutions were prepared in water. Compounds were administered over 2 weeks as follows: week 1, Mon-Fri (On), Sat-Sun (Off); week 2, Mon-Thu (On); necropsy on Friday. Thus, a total of 9 doses (dosing solutions prepared fresh every day) were given to each mouse, with a 24-hour washout between the last dose and necropsy.
Plasma was collected by spinning blood at 2700 g for 10 minutes at 4° C. Liver, spleen, lung, and brain tissues were removed, washed in cold PBS, blotted dry, flash frozen on dry ice, and stored at −80° C. until analysis. GCase levels were measured by homogenizing approximately 50 mg tissue in 500 μL McIlvane (MI) buffer (100 mM sodium citrate, 200 mM sodium phosphate dibasic, 0.25% sodium taurocholate, and 0.1% Triton X-100, pH 5.2) at pH 5.2 for 3-5 seconds on ice with a micro homogenizer. Homogenates were then incubated at room temperature without and with 2.5 mM conduritol-B-epoxide (CBE) for 30 min. Finally, 3.7 mM 4-methylumbeliferryl-β-glucoside (4-MUG) substrate was added and incubated at 37° C. for 60 min. Reactions were stopped by addition of 0.4 M glycine, pH 10.6. Fluorescence was measured on a plate reader for 1 sec/well using 355 nm excitation and 460 nm emission. Total protein was determined in lysates using the MicroBCA kit according to the manufacturer's instructions. A 4-methylumbelliferone (4-MU) standard curve ranging from 1.0 nM to 50 μM was run in parallel for conversion of raw fluorescence data to absolute GCase activity (in the presence and absence of CBE) and expressed as nanomoles of 4-MU released per milligram of protein per hour (nmol/mg protein/hr). GCase levels and protein levels were calculated using Microsoft Excel (Redmond, Wash.) and GraphPad Prism version 4.02.

[2] = mice, nine p.o. doses over 2 weeks, result in words

GCase increase (GCase; brain, 10 mg/kg (free base equivalent) p.o.): 2.3 -fold
GCase increase (GCase; brain, 100 mg/kg (free base equivalent) p.o.): 3.5 -fold
GCase increase (GCase; spleen, 10 mg/kg (free base equivalent) p.o.): 1.4 -fold
GCase increase (GCase; spleen, 100 mg/kg (free base equivalent) p.o.): 2.2 -fold
Compound: O[C@@H]1[C@@H](CCl)CNC[C@H]1O [Compound B, (3R,4R,5S)-5-(chloromethyl)piperidine-3,4-diol]
brain levels compared to Compound A [1]: even higher levels of Compound B were detected in brain than that observed following administration of the hydrochloride salt form of Compound A
GCase enhancement at lower doses compared to IFG-tartrate (GCase; [2]): unexpectedly greater than that observed with IFG-tartrate even when far lower doses
GCase enhancement in brain, spleen, liver and lung compared to control or IFG-tartrate (GCase; [2]): statistically significant greater GCase enhancement in brain, spleen, liver and lung as compared to mice administered control or IFG-tartrate
